What was measured:
Experiment in all cases: CTG-3D luminescence at 96 h relative to day-0 seeding control (ratio to day 0); higher = more growth / less cytotoxicity; PDxO 3D drug screen, 96 h, CTG-3D normalised to day-0 seeding control.
HCI-001 = tested on: HCI-001 (organoid from a triple-negative breast cancer xenograft)
HCI-002 = tested on: HCI-002 (organoid from a triple-negative breast cancer xenograft)
HCI-012 = tested on: HCI-012 (organoid from a breast cancer xenograft)
HCI-024 = tested on: HCI-024 (organoid from a breast cancer xenograft)

C=CC(=O)N1CCC[C@@H](n2nc(-c3ccc(Oc4ccccc4)cc3)c3c(N)ncnc32)C1 [ibrutinib]
CTG-3D luminescence at 96 h
Conditions	12.5 pM	0.00025 µM	0.005 µM	0.1 µM	1 µM	10 µM	100 µM	625 fM
HCI-001, days in culture: 240	1.62	0.923	0.958	1.01	0.901	0.951	-0.0017	1.14
HCI-001, days in culture: 260	2.29	1.15	2.12	0.971	1.31	1.12	-0.00311	1.46
HCI-001, days in culture: 269	1.59	1.71	1.51	1.41	1.06	1.38	-0.0108	1.48
HCI-001, days in culture: 327	1.45	1.07	1.49	1.3	1.25	0.932	-0.00545	1.92
HCI-001, days in culture: 346	1.37	1.36	1.14	0.896	1.23	1.15	-0.00544	1.3
HCI-001, days in culture: 364	1.37	1.18	1.57	0.992	1.12	1.02	-0.00371	1.6
HCI-002, days in culture: 62	2.83	2.33	2.92	2.77	1.54	1.45	-0.0218	2.97
HCI-002, days in culture: 82	3.16	2.97	2.43	2.38	1.77	1.32	-0.0175	2.68
HCI-002, days in culture: 91	3.98	3.44	3.33	3.61	2.11	1.75	-0.0238	3.98
HCI-002, days in culture: 191	2.76	2.47	2.21	2.23	1.69	1.34	-0.014	2.82
HCI-002, days in culture: 209	2.33	2.16	2.33	1.87	1.63	1	-0.0179	2.34
HCI-002, days in culture: 227	5.2	5.07	4.64	4.59	2.61	2.26	-0.0321	5.19
HCI-012, days in culture: 143	1.95	2	1.95	2.2	1.64	1.12	-0.0164	1.75
HCI-012, days in culture: 162	2.49	1.94	2.13	2.98	1.72	1.53	-0.0115	2.67
HCI-012, days in culture: 201	2.76	1.92	1.72	1.69	2.52	0.842	-0.018	1.54
HCI-024, days in culture: 105	1.56	1.54	1.35	1.46	1.32	1.61	-0.00218	1.84
HCI-024, days in culture: 122	2.18	2.8	2.14	1.49	1.64	1.91	-0.00165	3.5
HCI-024, days in culture: 163	1.47	2.09	2.1	2.44	1.92	1.75	0.00762	2.03

CN(Cc1cnc2nc(N)nc(N)c2n1)c1ccc(C(=O)N[C@@H](CCC(=O)O)C(=O)O)cc1 [methotrexate]
CTG-3D luminescence at 96 h
Conditions	12.5 pM	0.00025 µM	0.005 µM	0.1 µM	1 µM	10 µM	100 µM	625 fM
HCI-001, days in culture: 240	2.01	1.12	1.13	1.01	1.26	1.06	1.21	1.72
HCI-001, days in culture: 260	2.08	0.984	2.27	1.47	1.43	1.62	0.88	1.26
HCI-001, days in culture: 269	1.68	1.46	1.53	1.86	1.46	2.16	2.3	1.5
HCI-001, days in culture: 327	1.75	1.62	2.05	1.14	0.877	0.985	1.35	1.69
HCI-001, days in culture: 346	1.53	1.34	1.28	1.02	0.965	1.41	1.19	1.2
HCI-001, days in culture: 364	1.58	1.17	1.45	0.891	0.633	1.11	0.716	1.64
HCI-002, days in culture: 62	2.96	2.69	2.51	2.07	1.87	1.98	1.41	3
HCI-002, days in culture: 82	2.95	3.08	2.15	2.74	2.21	2.01	1.45	2.71
HCI-002, days in culture: 91	3.87	3.77	3.65	2.64	2.19	2.11	1.68	4.28
HCI-002, days in culture: 191	2.61	2.61	2.29	1.61	1.57	1.54	1.33	2.53
HCI-002, days in culture: 209	2.46	2.21	2.31	1.84	1.59	1.28	1.33	2.57
HCI-002, days in culture: 227	6.13	6.3	5.89	6.23	5.35	5.18	4.27	6.94
HCI-012, days in culture: 143	2.07	1.83	2.09	1.37	1.4	1.33	1.51	2.07
HCI-012, days in culture: 162	2.66	2.5	2.06	1.69	1.04	1.12	1.06	2.7
HCI-012, days in culture: 201	2.49	2.01	1.57	0.935	1.44	0.611	1.21	1.49
HCI-024, days in culture: 105	1.92	1.49	1.24	1.99	1.64	2	1.44	1.83
HCI-024, days in culture: 122	1.69	2.22	2.07	2	2.13	2.46	1.82	2.88
HCI-024, days in culture: 163	1.9	2.08	1.83	2.4	2.14	2.03	1.74	2.12

Reference: the supplement of paper PMC8882468
